This data set in a line: Pharmacokinetics of anthraquinones in plasma of cholestatic rats after oral DH, DH+MX or DHXSD. Type of data set: in vivo, rat. As to conditions: oral DH 1.2 g/kg, mean ± SD, n = 6.

Among the data in PMC13028883 (Pharmaceuticals, 2026) are t1/2 values, retold here.

Experimental: Cholestasis was established in rats through a single oral dose of ANIT (60 mg/kg in olive oil). […] Sequential blood samples were obtained at 5, 15, 30 min, and 1, 2, 4, 6, 8, 12, 24, and 36 h after administration. Plasma was separated by centrifugation and deproteinized by adding a 3:1 (v/v) ratio of acetonitrile containing 5 ng/mL IS1. Ultra-performance liquid chromatography–tandem mass spectrometry analysis was performed on the supernatants following a centrifugation, employing the described analytical approach [29].
Pharmacokinetic parameters were calculated using Drug And Statistics software (version 3.0). Intergroup comparisons were performed by one-way ANOVA followed by Tukey’s post hoc test for multiple comparisons. A p-value < 0.05 was considered statistically significant.

As to `O=C1c2cccc(O)c2C(=O)c2c(O)cc(CO)cc21` [Aloe emodin, aloe emodin], the t1/2 is 4.88 ± 0.97 h.
